In brackets after ≈: the same amount, converted by molar mass.
Legend:
Format in all cases: cell-based, Clostridium difficile
C. difficile ATCC 1801 = experiment: MIC and MBC, broth microdilution; settings: Clostridioides difficile, ATCC1801, C. difficile ATCC 1801; for MBC: read-out: MBC; for MIC: read-out: MIC
Protocol: (§1) Antibacterial activity of Diiodohydroxyquinoline against a wide panel of Clostridium difficile strains. […] MIC50 and MIC90 are the minimum concentration of each agent that inhibited growth of 50% and 90% of the tested isolates, respectively. The minimum bactericidal concentration (MBC) of these drugs was tested by plating 5 μL from wells with no growth onto BHIS agar plates. The MBC was categorized as the lowest concentration that reduced bacterial growth by 99.9% MIC50 and MIC90 are the minimum concentration of each agent that inhibited the growth of 50% and 90% of the tested isolates, respectively. The minimum bactericidal concentration (MBC) of these drugs was tested by plating 5 μL from wells with no growth onto BHIS agar plates. The MBC was categorized as the lowest concentration that reduced bacterial growth by 99.9% [29-31].

C. difficile ATCC 43255 [1] = experiment: MIC and MBC, broth microdilution; settings: Clostridioides difficile, ATCC43255, C. difficile ATCC 43255; for MBC: read-out: MBC; for MIC: read-out: MIC
Protocol: as §1

C. difficile HM-745 = experiment: MIC and MBC, broth microdilution; settings: Clostridioides difficile, HM745, C. difficile HM-745; for MBC: read-out: MBC; for MIC: read-out: MIC
Protocol: as §1

C. difficile I10 = experiment: MIC and MBC, broth microdilution; settings: Clostridioides difficile, C. difficile I10; for MBC: read-out: MBC; for MIC: read-out: MIC
Protocol: as §1

C. difficile I11 = experiment: MIC and MBC, broth microdilution; settings: Clostridioides difficile, C. difficile I11; for MBC: read-out: MBC; for MIC: read-out: MIC
Protocol: as §1

C. difficile I13 = experiment: MIC and MBC, broth microdilution; settings: Clostridioides difficile, C. difficile I13; for MBC: read-out: MBC; for MIC: read-out: MIC
Protocol: as §1

C. difficile I6 = experiment: MIC and MBC, broth microdilution; settings: Clostridioides difficile, C. difficile I6; for MBC: read-out: MBC; for MIC: read-out: MIC
Protocol: as §1

C. difficile I9 [2] = experiment: MIC and MBC, broth microdilution; settings: Clostridioides difficile, C. difficile I9; for MBC: read-out: MBC; for MIC: read-out: MIC
Protocol: as §1

C. difficile NR-49278 = experiment: MIC and MBC, broth microdilution; settings: Clostridioides difficile, NR49278, C. difficile NR-49278; for MBC: read-out: MBC; for MIC: read-out: MIC
Protocol: as §1

C. difficile NR-49285 = experiment: MIC and MBC, broth microdilution; settings: Clostridioides difficile, NR49285, C. difficile NR-49285; for MBC: read-out: MBC; for MIC: read-out: MIC
Protocol: as §1

C. difficile NR-49288 = experiment: MIC and MBC, broth microdilution; settings: Clostridioides difficile, NR49288, C. difficile NR-49288; for MBC: read-out: MBC; for MIC: read-out: MIC
Protocol: as §1

C. difficile P15 = experiment: MIC and MBC, broth microdilution; settings: Clostridioides difficile, C. difficile P15; for MBC: read-out: MBC; for MIC: read-out: MIC
Protocol: as §1

C. difficile P19 = experiment: MIC and MBC, broth microdilution; settings: Clostridioides difficile, C. difficile P19; for MBC: read-out: MBC; for MIC: read-out: MIC
Protocol: as §1

C. difficile P20 = experiment: MIC and MBC, broth microdilution; settings: Clostridioides difficile, C. difficile P20; for MBC: read-out: MBC; for MIC: read-out: MIC
Protocol: as §1

C. difficile P30 = experiment: MIC and MBC, broth microdilution; settings: Clostridioides difficile, C. difficile P30; for MBC: read-out: MBC; for MIC: read-out: MIC
Protocol: as §1

C. difficile P3 = experiment: MIC and MBC, broth microdilution; settings: Clostridioides difficile, C. difficile P3; for MBC: read-out: MBC; for MIC: read-out: MIC
Protocol: as §1

C. difficile P5 = experiment: MIC and MBC, broth microdilution; settings: Clostridioides difficile, C. difficile P5; for MBC: read-out: MBC; for MIC: read-out: MIC
Protocol: as §1

C. difficile P6 = experiment: MIC and MBC, broth microdilution; settings: Clostridioides difficile, C. difficile P6; for MBC: read-out: MBC; for MIC: read-out: MIC
Protocol: as §1

C. difficile ATCC 43255 [3] = experiment: Initial screening of antiparasitic drugs, broth microdilution MIC; settings: Clostridioides difficile, ATCC43255; initial screening, C. difficile ATCC 43255; read-out: MIC
Protocol: C. difficile strains were grown anaerobically on brain heart infusion supplemented (BHIS) agar plates at 37° C. for 48 hours. Afterwards, a bacterial solution equivalent to 0.5 McFarland standard was prepared and diluted in (BHIS) broth to achieve a bacterial concentration of about 5×10^5 CFU/mL. Drugs were added and serially diluted along the plates. Plates were then, incubated anaerobically at 37° C. for 48 hours. MICs reported in Table (1) are the minimum concentrations of the drugs that could completely suppress the visual growth of bacteria.

[4] = tested on: C. difficile ATCC BAA-1870; experiment: Time kill kinetics assay; settings: C. difficile ATCC BAA-1870, 5×MIC, 37° C.
Protocol: (§2) Time kill kinetics assay. In order to examine the killing kinetics of DIHQ, a time kill kinetics assay was performed against Clostridium difficile ATCC BAA 1870 and C. difficile NR-49277 as described previously. […] Aliquots were collected from each treatment after 0, 4, 6, 8, 12, and 24 hours of incubation at 37° C. and subsequently serially diluted and plated for viable CFU/mL determination.

C. difficile NR-49277 = experiment: Time kill kinetics assay; settings: C. difficile NR-49277, 5×MIC, 37° C.
Protocol: as §2

C. difficile ATCC 43255 [5] = experiment: Checkerboard assay, DIHQ with metronidazole or vancomycin; settings: C. difficile ATCC 43255
Protocol: (§3) The fractional inhibitory concentration index (ΣFIC) was calculated for each interaction. Interactions where the ΣFIC index was ≤0.5 were categorized as synergistic (SYN).

[6] = tested on: C. difficile ATCC BAA-1870; experiment: as above; settings: C. difficile ATCC BAA-1870
Protocol: as §3

C. difficile I9 [7] = experiment: as above; settings: C. difficile I9
Protocol: as §3

SMILES: CCc1c(Cl)c(O)c(Cl)c(O)c1C(=O)O[C@H]1[C@H](O)[C@H](OC)[C@H](OC/C2=C\C=C\C[C@H](O)/C(C)=C/[C@H](CC)[C@@H](O[C@@H]3OC(C)(C)[C@@H](OC(=O)C(C)C)[C@H](O)[C@@H]3O)/C(C)=C/C(C)=C/C[C@@H]([C@@H](C)O)OC2=O)O[C@@H]1C [Fidaxomicin, fidaxomicin]
- MBC (C. difficile ATCC 1801): 0.125 mg/L (≈ 0.118 µM)
- MIC (C. difficile ATCC 1801): 0.06 mg/L (≈ 0.0567 µM)
- MBC (C. difficile ATCC 43255 [1]): 0.015 mg/L (≈ 0.0142 µM)
- MIC (C. difficile ATCC 43255 [1]): 0.015 mg/L (≈ 0.0142 µM)
- MBC (C. difficile HM-745): 0.125 mg/L (≈ 0.118 µM)
- MIC (C. difficile HM-745): 0.06 mg/L (≈ 0.0567 µM)
- MBC (C. difficile I10): 0.03 mg/L (≈ 0.0284 µM)
- MIC (C. difficile I10): 0.015 mg/L (≈ 0.0142 µM)
- MBC (C. difficile I11): 0.015 mg/L (≈ 0.0142 µM)
- MIC (C. difficile I11): 0.015 mg/L (≈ 0.0142 µM)
- MBC (C. difficile I13): 0.03 mg/L (≈ 0.0284 µM)
- MIC (C. difficile I13): 0.03 mg/L (≈ 0.0284 µM)
- MBC (C. difficile I6): 0.06 mg/L (≈ 0.0567 µM)
- MIC (C. difficile I6): 0.06 mg/L (≈ 0.0567 µM)
- MBC (C. difficile I9 [2]): 0.03 mg/L (≈ 0.0284 µM)
- MIC (C. difficile I9 [2]): 0.03 mg/L (≈ 0.0284 µM)
- MBC (C. difficile NR-49278): 0.015 mg/L (≈ 0.0142 µM)
- MIC (C. difficile NR-49278): 0.007 mg/L (≈ 0.00662 µM)
- MBC (C. difficile NR-49285): 0.03 mg/L (≈ 0.0284 µM)
- MIC (C. difficile NR-49285): 0.015 mg/L (≈ 0.0142 µM)
- MBC (C. difficile NR-49288): 0.015 mg/L (≈ 0.0142 µM)
- MIC (C. difficile NR-49288): 0.007 mg/L (≈ 0.00662 µM)
- MBC (C. difficile P15): 0.06 mg/L (≈ 0.0567 µM)
- MIC (C. difficile P15): 0.06 mg/L (≈ 0.0567 µM)
- MBC (C. difficile P19): 0.06 mg/L (≈ 0.0567 µM)
- MIC (C. difficile P19): 0.03 mg/L (≈ 0.0284 µM)
- MBC (C. difficile P20): 0.015 mg/L (≈ 0.0142 µM)
- MIC (C. difficile P20): 0.015 mg/L (≈ 0.0142 µM)
- MBC (C. difficile P30): 0.007 mg/L (≈ 0.00662 µM)
- MIC (C. difficile P30): 0.007 mg/L (≈ 0.00662 µM)
- MBC (C. difficile P3): 0.03 mg/L (≈ 0.0284 µM)
- MIC (C. difficile P3): 0.015 mg/L (≈ 0.0142 µM)
- MBC (C. difficile P5): 0.03 mg/L (≈ 0.0284 µM)
- MIC (C. difficile P5): 0.03 mg/L (≈ 0.0284 µM)
- MBC (C. difficile P6): 0.003 mg/L (≈ 0.00284 µM)
- MIC (C. difficile P6): 0.003 mg/L (≈ 0.00284 µM)

SMILES: Cc1ncc([N+](=O)[O-])n1CCO [Metronidazole, metronidazole]
- MIC (C. difficile ATCC 43255 [3]): 0.25 mg/L (≈ 1.46 µM)
- MBC (C. difficile ATCC 1801): 0.25 mg/L (≈ 1.46 µM)
- MIC (C. difficile ATCC 1801): 0.25 mg/L (≈ 1.46 µM)
- MBC (C. difficile ATCC 43255 [1]): 0.25 mg/L (≈ 1.46 µM)
- MIC (C. difficile ATCC 43255 [1]): 0.25 mg/L (≈ 1.46 µM)
- MBC (C. difficile HM-745): 0.5 mg/L (≈ 2.92 µM)
- MIC (C. difficile HM-745): 0.5 mg/L (≈ 2.92 µM)
- MBC (C. difficile I10): 0.25 mg/L (≈ 1.46 µM)
- MIC (C. difficile I10): 0.25 mg/L (≈ 1.46 µM)
- MBC (C. difficile I11): 0.25 mg/L (≈ 1.46 µM)
- MIC (C. difficile I11): 0.25 mg/L (≈ 1.46 µM)
- MBC (C. difficile I13): 0.5 mg/L (≈ 2.92 µM)
- MIC (C. difficile I13): 0.25 mg/L (≈ 1.46 µM)
- MBC (C. difficile I6): 0.25 mg/L (≈ 1.46 µM)
- MIC (C. difficile I6): 0.25 mg/L (≈ 1.46 µM)
- MBC (C. difficile I9 [2]): 0.06 mg/L (≈ 0.351 µM)
- MIC (C. difficile I9 [2]): 0.06 mg/L (≈ 0.351 µM)
- MBC (C. difficile NR-49278): 0.5 mg/L (≈ 2.92 µM)
- MIC (C. difficile NR-49278): 0.25 mg/L (≈ 1.46 µM)
- MBC (C. difficile NR-49285): 0.5 mg/L (≈ 2.92 µM)
- MIC (C. difficile NR-49285): 0.25 mg/L (≈ 1.46 µM)
- MBC (C. difficile NR-49288): 0.25 mg/L (≈ 1.46 µM)
- MIC (C. difficile NR-49288): 0.25 mg/L (≈ 1.46 µM)
- MBC (C. difficile P15): 0.25 mg/L (≈ 1.46 µM)
- MIC (C. difficile P15): 0.25 mg/L (≈ 1.46 µM)
- MBC (C. difficile P19): 0.25 mg/L (≈ 1.46 µM)
- MIC (C. difficile P19): 0.25 mg/L (≈ 1.46 µM)
- MBC (C. difficile P20): 0.25 mg/L (≈ 1.46 µM)
- MIC (C. difficile P20): 0.25 mg/L (≈ 1.46 µM)
- MBC (C. difficile P30): 0.5 mg/L (≈ 2.92 µM)
- MIC (C. difficile P30): 0.5 mg/L (≈ 2.92 µM)
- MBC (C. difficile P3): 0.25 mg/L (≈ 1.46 µM)
- MIC (C. difficile P3): 0.25 mg/L (≈ 1.46 µM)
- MBC (C. difficile P5): 0.25 mg/L (≈ 1.46 µM)
- MIC (C. difficile P5): 0.25 mg/L (≈ 1.46 µM)
- MBC (C. difficile P6): 0.25 mg/L (≈ 1.46 µM)
- MIC (C. difficile P6): 0.25 mg/L (≈ 1.46 µM)
- time required to generate a 3-log10 reduction in CFU/mL [4]: 12 hours
- time required to generate a 3-log10 reduction in CFU/mL (C. difficile NR-49277): 12 hours
- MIC of metronidazole combined with DIHQ (C. difficile ATCC 43255 [5]): 0.015 mg/L
- MIC of metronidazole combined with DIHQ [6]: 0.015 mg/L
- MIC of metronidazole combined with DIHQ (C. difficile I9 [7]): 0.015 mg/L
